According to PubChem BioAssay (NCI):
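Results reflect a 48-hour exposure of cells in 96-well plates to compound at five concentrations. GI50 = concentration required for 50% inhibition of growth. TGI is the concentration that stops growth completely.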 Where a SMILES comes first, the peptide text is derived from it. [ ]: non-standard residue; d: D form. The star is where a group is joined. Bn2Val = CC(C)[C@@H](C(=O)*)N(Cc1ccccc1)Cc1ccccc1; NH(4-Cl-benzyl) = Clc1ccc(CN*)cc1; NMeV = CN[C@H](C(=O)O)C(C)C; dNMeA = CN[C@H](C)C(=O)O

Columns and labels:
Assay in all cases: growth of human tumour cells (NCI), 48 h
COLO 205 colon = system: COLO 205 colon
PC-3 prostate = system: PC-3 prostate
SK-MEL-28 melanoma = system: SK-MEL-28 melanoma
RPMI-8226 leukemia = system: RPMI-8226 leukemia
RXF 393 renal = system: RXF 393 renal
UACC-257 melanoma = system: UACC-257 melanoma
SN12C renal = system: SN12C renal
CCRF-CEM leukemia = system: CCRF-CEM leukemia
OVCAR-4 ovarian = system: OVCAR-4 ovarian
MOLT-4 leukemia = system: MOLT-4 leukemia

Row | Structure (SMILES) | TGI (COLO 205 colon) | TGI (PC-3 prostate) | TGI (SK-MEL-28 melanoma) | TGI (RPMI-8226 leukemia) | TGI (RXF 393 renal) | TGI (UACC-257 melanoma) | TGI (SN12C renal) | TGI (CCRF-CEM leukemia) | TGI (OVCAR-4 ovarian) | TGI (MOLT-4 leukemia) | GI50 (COLO 205 colon) | GI50 (PC-3 prostate) | GI50 (SK-MEL-28 melanoma) | GI50 (RPMI-8226 leukemia) | GI50 (RXF 393 renal) | GI50 (UACC-257 melanoma) | GI50 (SN12C renal) | GI50 (OVCAR-4 ovarian) | GI50 (MOLT-4 leukemia)
1 | O=C1OC[C@H]2[C@@H]1[C@H]1O[C@@H]2C2=C(CCC2)C1=O | > 100 µM | > 100 µM | > 100 µM | > 100 µM | > 100 µM | > 100 µM | > 100 µM | > 100 µM | > 100 µM |  |  |  |  |  |  |  |  |  | 
2 | Cc1cc(=O)[nH]c(NN2C(Cl)C(=O)C2c2ccc([N+](=O)[O-])cc2)n1 (configuration not stated) | 35.9 µM |  | 27.1 µM | 30.9 µM | 14.1 µM | 37.6 µM | 24.5 µM | 6.6 µM | 28.8 µM | 43.2 µM |  |  |  |  |  |  |  |  | 
3 | CC(C)C(C/C=C1\CC(CO)(COC(=O)C2CCCCC2)OC1=O)C(C)C (configuration not stated) | 23.6 µM | 37.2 µM | 33.8 µM |  | 35.4 µM | 84.1 µM | 31.2 µM | 43 µM | 36 µM | 39.8 µM |  |  |  |  |  |  |  |  | 
4 | C/C(=N\Nc1nc2ccccc2n1C)c1cc2ccccc2cn1 |  | > 20.7 µM | 16.6 µM | 1.63 µM | 7.7 µM | 7.26 µM | 3.29 µM | > 54.3 µM | 13 µM |  |  |  |  |  |  |  |  |  | 
5 | Cn1c(=O)oc2nc(-c3ccccc3)cc(C(F)(F)F)c21 | > 100 µM | > 100 µM | > 100 µM | > 100 µM |  | > 100 µM | > 100 µM |  | > 100 µM | > 100 µM |  |  |  |  |  |  |  |  | 
6 | CC(C)(C)[Si](C)(C)OCc1cccc(OCCOc2cccc(CO[Si](C)(C)C(C)(C)C)c2[N+](=O)[O-])c1[N+](=O)[O-] | > 100 µM | > 100 µM | > 100 µM |  | > 100 µM | > 100 µM | > 100 µM | > 100 µM | > 100 µM | > 100 µM |  |  |  |  |  |  |  |  | 
7 | Cc1nnc2n1N=C(c1ccc(Cl)cc1Cl)/C(=C/c1ccc(-c3ccc([N+](=O)[O-])cc3Cl)o1)S2 | > 100 µM | > 100 µM | > 100 µM | 24.9 µM | 25.1 µM | 41.2 µM | 40.9 µM |  | > 100 µM | 33.6 µM | 54.8 µM | 31.3 µM | 57.3 µM | 10.2 µM | 11.5 µM | 18.1 µM | 17.8 µM | 33.4 µM | 13.1 µM
8 | COc1ccc2cc(CNCCCCCCNCc3ccc4cc(OC)ccc4c3)ccc2c1 | 0.291 µM | 0.918 µM | 1.42 µM |  | 3.07 µM | 3.34 µM | 2.67 µM |  |  |  |  |  |  |  |  |  |  |  | 
9 | C=CCOn1c(C=C)nc2ccc(C)cc21 | 26.9 µM | 31 µM | 38 µM | 24.9 µM |  | 32.3 µM | 33.4 µM | 7.21 µM | > 100 µM | 68.8 µM |  |  |  |  |  |  |  |  | 
10 | CN=C(/N=c1\ssc(=NC)n1C)N(C)C | > 100 µM |  | > 100 µM | > 100 µM | > 100 µM | > 100 µM | > 100 µM |  | > 100 µM | > 100 µM |  |  |  |  |  |  |  |  | 
11 | C=CCP(=O)(CC=C)C(Cl)Cl | > 100 µM | > 100 µM | > 100 µM | > 100 µM |  | > 100 µM | > 100 µM | > 100 µM | > 100 µM | > 100 µM |  |  |  |  |  |  |  |  | 
12 | CC(C)(C)n1c(=O)[nH]c(=O)n1C(C)(C)C | > 100 µM | > 100 µM | > 100 µM |  | > 100 µM | > 100 µM | > 100 µM | > 100 µM | > 100 µM | > 100 µM |  |  |  |  |  |  |  |  | 
13 | O=C(Cc1ccc(Cl)c(Cl)c1)NCC1(N2CCCCC2)CCCCC1 |  | > 100 µM |  | > 100 µM | 53 µM | 36.7 µM | > 100 µM | > 100 µM | > 100 µM | > 100 µM |  |  |  |  |  |  |  |  | 
14 | CCN(CC)C(=S)SS(=O)(=O)c1cccc(N)c1 | > 100 µM |  | > 100 µM | > 100 µM | > 100 µM | > 100 µM | > 100 µM |  | > 100 µM | > 100 µM |  |  |  |  |  |  |  |  | 
15 | COc1ccc(OC)c(SC(CC(=O)c2ccccc2)c2ccccc2)c1 (configuration not stated) | 37.3 µM | 33.9 µM | 32.6 µM |  | 31.1 µM | 30.7 µM | 40.6 µM | > 100 µM | > 100 µM | > 100 µM |  |  |  |  |  |  |  |  | 
16 | CC(C)[C@H](NC(=O)[C@H](C(C)C)N(Cc1ccccc1)Cc1ccccc1)C(=O)N(C)[C@H](C(=O)N1CCC[C@H]1C(=O)N(C)[C@H](C)C(=O)NCc1ccc(Cl)cc1)C(C)C (Bn2Val-V[NMeV]P[dNMeA]-{NH(4-Cl-benzyl)}) |  | > 100 µM | 36.3 µM | > 100 µM | 6.27 µM | > 100 µM | 6.35 µM | 7.43 µM | > 100 µM | > 100 µM |  |  |  |  |  |  |  |  | 
17 | COc1cccc(N=N/C(=N\NC(=O)c2ccc(C)cc2)c2ccc(N(CCC#N)CCC#N)cc2C)c1 | > 100 µM | > 100 µM | > 100 µM | > 100 µM | > 100 µM | > 100 µM | > 100 µM |  | > 100 µM | > 100 µM |  |  |  |  |  |  |  |  | 
18 | Cc1nc(N)c(N2CCN(CN)CC2)c(=O)[nH]1 | > 100 µM | > 100 µM | > 100 µM | > 100 µM |  | > 100 µM | > 100 µM | > 100 µM | > 100 µM | > 100 µM |  |  |  |  |  |  |  |  | 
19 | NCc1cccc(O)c1O | > 100 µM |  | > 100 µM | > 100 µM | > 100 µM | > 100 µM | > 100 µM | > 100 µM | > 100 µM | > 100 µM |  |  |  |  |  |  |  |  | 
20 | C/C(=N\NC(=S)N(C)C)c1cccnn1 | > 100 µM | > 100 µM | > 100 µM | > 100 µM |  | 2.98 µM | > 100 µM |  | > 100 µM | 3.08 µM |  |  |  |  |  |  |  |  | 
21 | Cc1ccccc1-c1nc2c(C(=O)NCCN(C)C)cccc2[nH]1 | 51.9 µM |  | > 100 µM | 73.4 µM | > 100 µM | > 100 µM | > 100 µM | > 100 µM | > 100 µM | 75.6 µM |  |  |  |  |  |  |  |  | 
22 | COc1ccc(-c2oc3cc(O)cc(O)c3c(=O)c2OC)cc1 | > 100 µM | > 100 µM | > 100 µM | 69.2 µM |  | > 100 µM |  | > 100 µM | > 100 µM | 87.9 µM |  |  |  |  |  |  |  |  | 
